Active and inactive are the calls of the source. No cut-off for these calls is given here.

Data set [1] in a line: Photocytotoxicity against rat AY27 cells assessed as cell death at 0.25 uM incubated for 2 hrs followed by 10 mW/cm2 laser light irradiation for 30 mins and measured after 24 hrs in presence of Hexyl-5-aminolevulinic acid by MTT assay relative to control. Format: functional, AY-27.
The test system of the next data set is AY-27. The experiment in a line: Photocytotoxicity against rat AY27 cells assessed as cell death at 0.025 to 1.25 uM incubated for 2 hrs followed by 10 mW/cm2 laser light irradiation for 30 mins and measured after 24 hrs by MTT assay. The format is functional, cell-based.
Data set [2] can be described thus: Dark toxicity in rat AY27 cells assessed as reduction in cell viability at 0.025 to 1.25 uM preincubated for 2 hrs followed by 30 mins incubation under dark condition and measured after 24 hrs by MTT assay. The format is cell-based. As to conditions: ay-27, 1.25 µM.
Data set [3] is described as follows: Lipophilicity, log D of the compound at pH 7.4 by shake flask method. Format: physicochemical. The settings on record: buffer.
Data set [4] in a line: Dark toxicity in rat AY27 cells assessed as reduction in cell viability at 0.025 to 1.25 uM preincubated for 2 hrs followed by 30 mins incubation under dark condition measured after 24 hrs in presence of Hexyl-5-aminolevulinic acid by MTT assay. Format: cell-based. The settings on record: ay-27, 1.25 µM.
Data set [5] can be described thus: Lipophilicity, log D of the compound at pH 7.4. Format: physicochemical. As to conditions: buffer.
Data set [6] can be described thus: Drug localization in mitochondria of rat AY27 cells at 0.5 uM after 30 mins by Mitotracker deep Red staining-based confocal fluorescence microscopy. The format is ADME. As to conditions: ay-27, 0.5 h.
Data set [7] is described as follows: Drug uptake in rat AY27 cells at 1 uM by texas red probe-based fluorescence microscopy. The format is ADME, cell-based. The settings on record: ay-27, 1 µM, TDE = time-dependent effect.
Data set [8] can be described thus: Drug uptake in rat AY27 cells assessed per cell at 5 uM measured after 120 mins by fluorescence assay. Format: ADME, cell-based. As to conditions: ay-27, 2 h.
Data set [9] is described as follows: Drug localization in mitochondria of rat AY27 cells at 0.5 uM assessed as protoporphyrin IX level after 2 hrs by Mitotracker deep Red staining-based confocal fluorescence microscopic method. The format is ADME. As to conditions: ay-27, 2 h.
Data set [10] is described as follows: Photodynamic anticancer activity against rat AY27 cells assessed as cell death at 0.5 uM incubated for 2 hrs followed by 10 mW/cm2 laser light irradiation for 30 mins and measured after 24 hrs by MTT assay relative to control. The format is functional, AY-27.

On to `CC(=O)O[C@H]1C(=O)[C@@]2(C)[C@H]([C@H](OC(=O)c3ccccc3)[C@]3(O)C[C@H](OC(=O)C(OC(=O)/C=C/N4CCC(COC(=O)c5cc[n+](C)cc5)CC4)[C@@H](NC(=O)c4ccccc4)c4ccccc4)C(C)=C1C3(C)C)[C@]1(OC(C)=O)CO[C@@H]1C[C@@H]2O.[Cl-]` (stereo partly specified), for which the Activity in [1] is on record as 82%; in data set [2], “Non-Toxic”; in data set [4] it was “Non-Toxic”. The result in the data set on AY-27 was inactive. The logD in data set [3] came to 1.

For `CC(=O)O[C@H]1C(=O)[C@@]2(C)[C@H]([C@H](OC(=O)c3ccccc3)[C@]3(O)C[C@H](OC(=O)[C@H](O)[C@@H](NC(=O)c4ccccc4)c4ccccc4)C(C)=C1C3(C)C)[C@]1(OC(C)=O)CO[C@@H]1C[C@@H]2O` [PACLITAXEL], the logD in data set [5] was 3.6.

As for `CCN(CC)c1ccc2c(-c3ccccc3C(=O)OCC3CCN(/C=C/C(=O)OC(C(=O)O[C@H]4C[C@@]5(O)[C@@H](OC(=O)c6ccccc6)[C@@H]6[C@]7(OC(C)=O)CO[C@@H]7C[C@H](O)[C@@]6(C)C(=O)[C@H](OC(C)=O)C(=C4C)C5(C)C)[C@@H](NC(=O)c4ccccc4)c4ccccc4)CC3)c3ccc(=[N+](CC)CC)cc-3oc2c1.[Cl-]` (stereo partly specified), the Drug uptake result is on record as “Active” in data set [6], “Tde” in data set [7] and 0.68 fmol in data set [8]. Further, the Activity in data set [1] is reported as 84%; in data set [2] it was “Non-Toxic”; in [4], “Non-Toxic”. In the data set with AY-27, the outcome was inactive. The same compound showed a logD in data set [3] of 1.9.

On to `CCCCCCOC(=O)CCC(=O)CN` [HEXAMINOLEVULINATE], for which the Drug uptake entry in data set [9] is “Active”. Further, the Activity in [10] stood at 40%.

Turning to `CC(=O)O[C@H]1C(=O)[C@@]2(C)[C@H]([C@H](OC(=O)c3ccccc3)[C@]3(O)C[C@H](OC(=O)C(OC(=O)/C=C/N4CCC(COCCC[P+](c5ccccc5)(c5ccccc5)c5ccccc5)CC4)[C@@H](NC(=O)c4ccccc4)c4ccccc4)C(C)=C1C3(C)C)[C@]1(OC(C)=O)CO[C@@H]1C[C@@H]2O.[Br-]` (stereo partly specified), the Activity was 80% in [1], “Non-Toxic” in [2] and “Non-Toxic” in data set [4]. For the same compound, the result in the data set with AY-27 was inactive. Besides, the pH-dependent lipophilicity (logD) in data set [3] turned out to be 1.3.

The values are drawn from ChEMBL document CHEMBL4387715, “Singlet oxygen-activatable Paclitaxel prodrugs via intermolecular activation for combined PDT and chemotherapy” (Bioorg Med Chem Lett, 2019).
